Assay results: patent US20100209959A1, “TUMOUR-CELL-FIXING CELLS” (UNIVERSITE PIERRE ET MARIE CURIE-PARIS VI, priority 2007, published 2010)

How the values were obtained:
HL60 cells [1] = assay: Proliferation of HL60 cells, free or fixed to hospicells, after exposure to AraC or DNR; assay type: cell-based, human; settings: for living HL60 cells fixed to the hospicells during treatment / living free HL60 cells during treatment: 5 days' treatment; for living HL60 cells fixed to the hospicells during treatment / living HL60 cells on hospicells after the treatment is stopped: HL60 fixed to hospicells; for living HL60 cells on hospicells after the treatment is stopped / growth of free HL60 cells after the treatment is stopped: drug removed, fresh medium
Experimental: (§1) HL60 cells cultured with hospicells in RPMI medium were treated for 5 days with either aracytin (AraC) or daunorubicin (DNR).
After 5 days' treatment, the drug was removed and the cells were cultured again in fresh medium.
The number of living HL60 cells was measured throughout the experiment using the image analysis system.

hospicells = assay: Toxicity of the drug for hospicells in HL60/hospicell co-culture; assay type: cell-based
Experimental: as §1
This effect of “regrowth” of the cells is greater with aracytin than with daunorubicin, the difference being linked to the toxicity of daunorubicin for the hospicells.

OVCAR3 cells = assay: Chemoresistance of OVCAR3 cells co-cultured with hospicells (SRB assay); assay type: cell-based; settings: verapamil 1.4 μM added, in the presence of carboplatin and paclitaxel
Experimental: Briefly, the hospicells were cultivated to 60% confluence. 2·10^4 OVCAR3 cells expressing GFP were then co-cultivated with the hospicells for 24 hours before being brought into contact with a chemotherapeutic agent (carboplatin 22.2 μM and paclitaxel 1.4 μM). The chemotherapeutic effect was determined with the aid of a quantitative colorimetric assay with sulforhodamine B (SRB) as described by Skehan et al. (1990) J. Natl. Cancer Inst. 82:1107-1112. The pink colour of the SRB was quantified by measuring the absorbance at 540 nm. For each condition, the mean cell density and the standard deviation were calculated from the data obtained for 6 wells. The experiments were repeated 3 times.
The role of the MDR proteins in the chemoresistance imparted by the hospicells was confirmed by repeating the above co-culture experiments of hospicells and OVCAR3 cells in the presence of carboplatin and paclitaxel, and adding to the culture medium verapamil (1.4 μM), an MDR1 protein inhibitor.

HL60 cells [2] = assay: Adhesion of HL60 cells to hospicells; assay type: cell-based, human; settings: HL60 incubated beforehand with agent; tumour cells/hospicells 5/1; 24 hours at 37° C.
Experimental: HL60 cells were incubated in RPMI medium under […]: • HL60 cells alone (control) • HL60 cells+anti-arrestin antibody (control antibody) • HL60 cells+RGD (Arg-Gly-Asp, integrin consensus sequence, which partially prevents integrin dependent adhesion) • HL60 cells+anti-CD11a antibody • HL60 cells+anti-CD49d antibody • HL60 cells+anti-CD11a antibody+anti-CD49d antibody • HL60 cells+anti-CD11a antibody+anti-CD49d antibody+RGD
For each condition, HL60 cells were deposited separately and in identical amounts in 6 different wells containing complete RPMI medium and fixing cells which had adhered to the support. The ratio between tumour cells and hospicells was 5/1. After incubation for 24 hours at 37° C., the HL60 cells that had not adhered were recovered and counted. The percentage of HL60 cells adhering to the hospicells was then calculated for each condition.

Compound | living HL60 cells fixed to the hospicells during treatment (HL60 cells [1]) | living HL60 cells on hospicells after the treatment is stopped (HL60 cells [1]) | effect of regrowth of the HL60 cells on hospicells, aracytin compared with daunorubicin (HL60 cells [1]; after the treatment is stopped) | living free HL60 cells during treatment (HL60 cells [1]) | growth of free HL60 cells after the treatment is stopped (HL60 cells [1]) | toxicity for the hospicells (hospicells) | chemoresistance imparted by the hospicells to the OVCAR3 cells (OVCAR3 cells) | adhesion of the HL60 cells to the hospicells (HL60 cells [2])
Nc1ccn([C@@H]2O[C@H](CO)[C@@H](O)[C@@H]2O)c(=O)n1 [AraC, aracytin] | no longer detectable | living HL60 cells are identifiable | greater | die | do not grow |  |  | 
COc1cccc2c1C(=O)c1c(O)c3c(c(O)c1C2=O)C[C@@](O)(C(C)=O)C[C@@H]3O[C@H]1C[C@H](N)[C@H](O)[C@H](C)O1 [DNR, daunorubicin] | no longer detectable | living HL60 cells are identifiable |  | die | do not grow | toxicity |  | 
COc1ccc(CCN(C)CCCC(C#N)(c2ccc(OC)c(OC)c2)C(C)C)cc1OC (stereo not drawn) [verapamil] |  |  |  |  |  |  | dramatically reduces | 
Arg-Gly-Asp [RGD] |  |  |  |  |  |  |  | partially blocks
